For 2 molecules, GI50, anti-tumor activity and PRMT5 inhibitor potency results are on record in patent US11999993B2, “Use of biomarkers in identifying cancer patients that will be responsive to treatment with a PRMT5 inhibitor” (Janssen Pharmaceutica NV, priority 2017, dated 2024).

Each structure is given as a SMILES string.

For assay [1], the system named is LC-2/ad. In words: Proliferation sensitivity, NSCLC U2AF1-S34F cell panel. The format is cell-based. As to conditions: Homo sapiens, Adenocarcinoma.
The test system of assay [2] is NCI-H1048. In words: Cellular sensitivity, lung cancer cell line panel (SCLC). It is filed as cell-based. The note with it: Homo sapiens, NCI-H1048, PIK3CA H1047R.
Assay [3] has as its system EPLC272H. In words: Lung cell line panel sensitivity, Cyclin D1 pathway amplified NSCLC. It is filed as cell-based. As to conditions: Homo sapiens, EPLC-272H, Adenocarcinoma.
Assay [4] deals with NCI-H226. Described as above. As to conditions: Homo sapiens; NCI-H226, CDK4 amplified, Adenocarcinoma. The format is cell-based.
Assay [5] deals with H69V. In words: Cellular sensitivity, lung cancer cell line panel (SCLC). The format is cell-based. As to conditions: PIK3CA G106_R108del.
The test system of assay [6] is LU99a. The assay is described as above. It is filed as cell-based. The note with it: Homo sapiens, LU-99A, PIK3CA T1025A.
Assay [7] concerns HLC1. In words: Lung cell line panel sensitivity, Cyclin D1 pathway amplified NSCLC. The format is cell-based. The note with it: HLC1, CDK6 amplified, Squamous Cell Carcinoma.
The subject of assay [8] is HCC78. In words: Proliferation sensitivity, NSCLC U2AF1-S34F cell panel. The format is cell-based. The note with it: Homo sapiens, Adenocarcinoma.
In assay [9] the test system is NCI-H441. The description is as above. The format is cell-based. The note with it: Homo sapiens, Adenocarcinoma.
In assay [10] the test system is MCL xenograft models. The note with it: multiple MCL xenograft models; Chan-Penebre et al. 2015; cited from earlier work.
In assay [11] the target is PRMT5 (Homo sapiens, UniProt O14744). As to conditions: Chan-Penebre et al., Nat Chem Biol 2015; cited from earlier work.
Sequence of PRMT5 (O14744 whole entry): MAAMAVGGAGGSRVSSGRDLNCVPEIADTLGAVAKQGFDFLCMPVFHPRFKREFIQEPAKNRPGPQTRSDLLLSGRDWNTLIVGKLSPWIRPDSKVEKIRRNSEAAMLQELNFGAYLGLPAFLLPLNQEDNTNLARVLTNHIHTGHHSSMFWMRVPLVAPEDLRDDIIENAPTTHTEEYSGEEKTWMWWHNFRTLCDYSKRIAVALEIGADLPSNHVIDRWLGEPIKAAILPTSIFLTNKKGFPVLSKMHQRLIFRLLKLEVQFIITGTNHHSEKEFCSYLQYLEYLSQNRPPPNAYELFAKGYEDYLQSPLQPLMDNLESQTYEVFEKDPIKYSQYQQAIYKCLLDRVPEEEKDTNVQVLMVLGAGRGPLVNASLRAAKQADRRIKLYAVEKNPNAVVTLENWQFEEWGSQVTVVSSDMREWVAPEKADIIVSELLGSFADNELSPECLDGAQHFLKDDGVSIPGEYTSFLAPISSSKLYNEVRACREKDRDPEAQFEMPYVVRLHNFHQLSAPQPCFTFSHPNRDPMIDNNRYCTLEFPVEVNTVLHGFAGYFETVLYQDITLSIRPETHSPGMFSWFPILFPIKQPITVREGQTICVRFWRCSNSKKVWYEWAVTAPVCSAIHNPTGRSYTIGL
Sequence of PRMT5 (Q9BQA1 whole entry partner): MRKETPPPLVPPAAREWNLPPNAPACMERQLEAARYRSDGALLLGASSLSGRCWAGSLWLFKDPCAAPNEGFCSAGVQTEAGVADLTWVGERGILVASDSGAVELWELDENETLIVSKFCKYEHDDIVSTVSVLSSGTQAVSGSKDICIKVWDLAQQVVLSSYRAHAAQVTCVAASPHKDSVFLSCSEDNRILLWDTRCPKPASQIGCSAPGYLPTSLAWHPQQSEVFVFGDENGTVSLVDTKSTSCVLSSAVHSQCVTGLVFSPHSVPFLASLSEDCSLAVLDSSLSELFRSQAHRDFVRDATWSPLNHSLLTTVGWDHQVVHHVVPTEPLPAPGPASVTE

A word on the GI50: it is the concentration at which growth is held to half of that of the control. A low value points to greater sensitivity of the cells. For the molecule `Nc1ncnc2c1ccn2[C@@H]1O[C@H](COc2ccc3cc(Br)cnc3c2)[C@@H](O)[C@H]1O` [Compound 2], the GI50 in assay [1] turned out to be 116 nM; in [2], 94.6 nM; in [3] it was 98.5 nM; in assay [4], 205 nM; in [5] it was 85.6 nM; in [6], 129 nM. The GI50 in assay [7] worked out at 96.4 nM; in assay [8] it was 108 nM; in assay [9] it was 98.4 nM.
For `O=C(NC[C@H](O)CN1CCc2ccccc2C1)c1cc(NC2COC2)ncn1` [EPZ015666], in [10], the anti-tumor activity entry is recorded as “anti-tumor activity in multiple MCL xenograft models”. Further, the PRMT5 inhibitor potency entry in assay [11] is recorded as “sub-nanomolar”.
